The subject of series [1] is lung cancer cell line A-549. The series is described as follows: MTT assay, tumour cell growth inhibition, lung A-549. In kind it is cell-based, human. Conditions: for IC50: Homo sapiens, A549, Lung A-549, MTT, 96 h, read-out: IC50, dose required for 50% inhibition of tumour cell growth. From the text:
(§1) The human tumour cell lines were the breast cancer cell line MCF-7, the colon cancer cell line HCT-116, and the lung cancer cell line A-549. The MTT assay was used, which exploits the ability of living cells to metabolise the water soluble tetrazolium salt 3-[4,5-dimethylthiazol-2yl-2,5-diphenyl tetrazolium bromide (MTT) into a water insoluble formazan precipitate (Carmichael et al, 1987). The purple precipitate can then be dissolved in an organic solvent and the optical density determined as a measure of cell survival. Compounds were tested concurrently for a true comparison.
(§2) The compound under study was dissolved in DMSO to yield a 10 mM stock solution. […] Cells were seeded into sterile flat-bottomed 96-well plates at a known initial seeding density (MCF-7 1.5×10E3, HCT-116 1×10E3, A549 2×10E3). The cells were plated in RPMI 1640 medium supplemented with 10% heat-inactivated Foetal Calf Serum solution. The plates were then incubated for 24 h at 37° C., 5% CO2 to allow cell adherence. 20 μl of the appropriate drug dilution (from serial dilutions in medium from 10 mM stock) was added to the wells (to give a final well volume of 200 μl). Plates were returned to the incubator for 96 h, and then 50 μl of MTT was added to each well. After a further 4 h incubation, the medium and any unconverted MTT was aspirated from the wells and the formazan precipitate dissolved by the addition of 100 μl of DMSO and several minutes agitation. The absorbance at A450 was then recorded on a plate reader, and the results expressed as a % survival of DMSO treated controls.
On the technique in general: Tetrazolium dyes change colour on reduction, which living cells bring about.

For series [2], the system named is colon cancer cell line HCT-116. The series is described as follows: MTT assay, tumour cell growth inhibition, colon HCT-116. In kind it is cell-based, human. The conditions noted are these: for IC50: Homo sapiens, Colon HCT-116, MTT, 96 h.
From the text: as §1, §2

The target in another series is T1, CYP1B1 enzyme (Homo sapiens, UniProt Q16678).
T1 construct: A microsomal preparation of human tumour tissue expressing the CYP1B1 enzyme was prepared; from tissue; host or cells: human tumour tissue (microsomal preparation)
T1 sequence (Q16678 1-543): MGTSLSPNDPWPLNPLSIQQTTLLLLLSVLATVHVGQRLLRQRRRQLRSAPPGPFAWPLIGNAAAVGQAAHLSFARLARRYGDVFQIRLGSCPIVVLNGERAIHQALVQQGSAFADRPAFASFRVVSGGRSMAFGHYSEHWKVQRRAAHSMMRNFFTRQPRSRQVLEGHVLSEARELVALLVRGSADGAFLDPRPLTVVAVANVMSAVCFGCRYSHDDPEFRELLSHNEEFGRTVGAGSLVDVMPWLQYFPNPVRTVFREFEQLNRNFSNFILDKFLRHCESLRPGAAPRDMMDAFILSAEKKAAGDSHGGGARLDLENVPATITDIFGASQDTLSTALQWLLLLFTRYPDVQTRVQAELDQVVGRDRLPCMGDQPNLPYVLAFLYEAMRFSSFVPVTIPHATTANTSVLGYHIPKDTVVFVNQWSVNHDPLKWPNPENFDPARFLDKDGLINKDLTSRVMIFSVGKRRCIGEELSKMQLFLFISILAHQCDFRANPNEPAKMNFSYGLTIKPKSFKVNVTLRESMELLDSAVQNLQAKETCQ
The series is described as follows: Metabolism by microsomal preparation of human tumour tissue expressing CYP1B1, HPLC. The series is classed as in vitro ADME. Conditions: human tumour microsomes, NADPH, 1 h, 37° C., pH 7.6. The protocol: A microsomal preparation of human tumour tissue expressing the CYP1B1 enzyme was prepared essentially as described by the method of Barrie et al., 1989. The experiment was carried out at 37° C., under yellow light. An array of 1.5 ml centrifuge tubes were set up in a water bath shaker-under aerobic conditions. To each tube was then added 500 μl of pH 7.6 buffer (0.1 M NaK2PO4), followed by NADPH (5 μl of a 25 mM stock solution). The microsomal preparation (80 μl) was then added and the tubes preincubated for 5 min at 37° C.
The prodrug substrate, compound II, was then added (10 μl of a 5 mM stock solution) and incubated for 1 h at 37° C. After 1 h the tubes were transferred to an ice/water cooling bath (0° C.). The tubes were then centrifuged at 15,000 rpm for 30 min. A sample of the supernatant (100 μl) was then taken and analysed by HPLC. HPLC conditions: Spherisorb C18 (25 cm×4.6 mm id), used without guard column. Flow rate 1 ml/min. Eluent 75% 0.1 M KH2PO4 and 25% acetonitrile.
The hydroxylated metabolite, compound III, was detected by HPLC, and confirmed by comparison with the authentic hydroxylated synthetic compound III.

The subject of series [3] is breast cancer cell line MCF-7. The series is described as follows: MTT assay, tumour cell growth inhibition, breast MCF-7. The series is classed as cell-based, human. The conditions noted are these: for IC50: Homo sapiens, MCF7, Breast MCF-7, MTT, 96 h, read-out: IC50, dose required for 50% inhibition of tumour cell growth.
From the text: as §1, §2

The test system of the next series is splenocytes. The series is described as follows: Splenocyte anti-proliferation assay (Con A stimulated, tritiated thymidine). The series is classed as cell-based. Conditions: FIG. 1, triplicate. The text has this: The anti-inflammatory effects of Compound II (DMU-120) were examined (in triplicate) using a splenocyte anti-proliferation assay.
The splenocyte anti-proliferation assay has been developed to identify compounds that have useful anti-inflammatory properties for the treatment of auto-inflammatory diseases such as rheumatoid arthritis. See, for example, Yamashita et al., 1994. This well known assay is described in detail in, for example, Mosmann, 1983. In this assay, splenocyte proliferation is stimulated by the inflammatory response inducer conconavilin A (Con A). Cell proliferation is monitored by detecting radiation (counts per minute, cpm) from a radio label (tritiated thymidine) which is incorporated only into proliferating cells.
The compound was assayed as a solution in dimethylsulfoxide (DMSO) as solvent. The solvent control is also shown for comparison. Other controls are also shown. “ConA” denotes the signal (cpm) detected for a control where cell proliferation is stimulated by ConA in the absence of a test compound. “Med” denotes the signal (cpm) detected for the cell culture medium alone. “Bkg” denotes the background radiation level (cpm).

[4] abbreviates: read-out: IC50, dose required for 50% inhibition of tumour cell growth.

Read-outs that look alike come from different tables or passages of the source.

One may read the IC50 as the midpoint of a concentration-inhibition curve. What is called melting point is the temperature of the solid-liquid transition.

As to `COc1ccc(/C=C/C(=O)c2cc(OC)cc(OC)c2)cc1` [Compound II, (E)-1-(4-Methoxyphenyl)-3-(3,5-dimethoxyphenyl)prop-1-en-3-one], the melting point was 87 to 88 °C. For the same compound, in series [1], the IC50 turned out to be 6600 nM. Further, the “Selectivity Factor (Prodrug/Metabolite)” value in series [1] (Lung A-549, IC50 Compound II / IC50 Compound III) was determined as 80. Besides, the “Selectivity Factor (Prodrug/Metabolite)” value in series [2] (Colon HCT-116, IC50 Compound II / IC50 Compound III) was determined as 15000. In series [2] (setting [4]), the IC50 is 1200 nM. Further, the “Metabolic conversion by CYP1B1 (aromatic hydroxylation)” value on CYP1B1 enzyme is given as “converted to the hydroxylated metabolite compound III”. In addition, in series [3] (Breast MCF-7, IC50 Compound II / IC50 Compound III), the “Selectivity Factor (Prodrug/Metabolite)” value is 1100. Further, the IC50 in series [3] is 690 nM. The “Concentration showing anti-inflammatory effects on splenocyte proliferation” value in the series on splenocytes is given as “less than 10 μM”.
In turn, `COc1cc(OC)cc(C(=O)/C=C/c2ccc(OC)c(O)c2)c1` [Compound III, (E)-1-(3-Hydroxy-4-methoxyphenyl)-3-(3,5-dimethoxyphenyl)prop-1-en-3-one] gave a melting point of 129 °C. Also, the IC50 in series [1] was found to be 80 nM. Also, in series [2] (setting [4]), the IC50 was 0.08 nM. Also, the IC50 in series [2] (read-out: IC50 against colon tumour cell line HCT-116, restated in nM) came out at 0.08 nM. For the same compound, in series [3], the IC50 amounted to 0.65 nM.
For `COc1cc(OC)cc(C(=O)/C=C/c2ccc(OC)cc2OC)c1` [Compound IV, (E)-1-(2,4-dimethoxyphenyl)-3-(3,5-dimethoxyphenyl)prop-1-en-3-one], in series [3], the IC50 stood at 0.1 nM.

Source of the values: US6787672B2, “Substituted chalcones as therapeutic compounds” (Cancer Research Technology Limited, priority 2000, dated 2004).
